One assay has as its target T1, binding between NRF2 and KEAP1 (biotinylated human KEAP1 protein (Kelch domain), TAMRA-labeled NRF2 peptide) (Homo sapiens, UniProt Q14145).
T1 construct: biotinylated human KEAP1 protein (Kelch domain); biotin (biotinylated)
Briefly: Measurement of activity of inhibiting NRF2 binding (NRF2-KEAP1 TR-FRET). Conditions: inhibition rate relative to control at 100 nM test compound; TR-FRET; 60 min at room temperature; 0.1 µM. The method, then: Test Example 1: Measurement of Activity of Inhibiting NRF2 Binding
The inhibitory activity of test compounds against the binding between NRF2 and KEAP1 was measured by Time Resolved Fluorescence Resonance Energy Transfer (TR-FRET) method. Into a 384 well plate, 2 μL of a compound, 2 μL of 2 nM solution of biotinylated human KEAP1 protein (Kelch domain), 2 μL of 14 nM solution of TAMRA-labeled NRF2 peptide (TAMRA-Abu(4)-VWYTDIRMRDWM-OH), and 2 μL of 2 nM solution of Tb-labeled streptavidin, all solutions diluted with assay buffer (25 mM HEPES, pH7.5, 150 mM NaCl, 0.01% Tween-20), were added. For some wells, the KEAP1 protein was not added to define control wells. The plate was incubated at room temperature for 60 minutes, and time-resolved fluorescence was measured with a plate reader Envision (manufactured by PerkinElmer). The inhibitory activity for each compound at a compound concentration of 100 nM were calculated as a relative activity value by setting the fluorescence intensity of control wells to which the KEAP1 protein was not added as 100% inhibition, and the fluorescence intensity of wells to which no compound was added as 0%.
The measurement results according to the method described above (inhibition rate of signal value relative to control at 100 nM of test compound) are shown in Table 3.
On the technique in general: In TR-FRET formats the signal depends on donor and acceptor labels being close together.
T1 sequence (Q14145 321-609 limits assumed): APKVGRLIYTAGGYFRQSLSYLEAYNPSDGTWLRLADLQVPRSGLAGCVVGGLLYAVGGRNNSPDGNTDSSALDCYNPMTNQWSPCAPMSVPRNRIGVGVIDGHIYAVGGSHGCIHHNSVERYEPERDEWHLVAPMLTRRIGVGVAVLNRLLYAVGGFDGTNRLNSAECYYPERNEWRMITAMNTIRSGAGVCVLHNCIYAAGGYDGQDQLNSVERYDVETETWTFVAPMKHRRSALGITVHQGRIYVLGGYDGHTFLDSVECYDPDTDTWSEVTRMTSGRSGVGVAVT
`Cc1c2ccc3c1nnn3CCCOCc1cc(Cl)c(c(Cl)c1)C(=O)N1CCc3ccc(cc3C1)C2C(C)(C)C(=O)O` (centres unmarked) [Example 61, 2-[18,30-dichloro-32-methyl-20-oxo-14-oxa-8,9,10,21-tetrazahexacyclo[19.5.3.2^16,19.1^3,7.0^6,10.0^24,28]dotriaconta-1(27),3(32),4,6,8,16,18,24(28),25,30-decaen-2-yl]-2-methylpropanoic acid]: the “NRF2 binding inhibitory activity (at 100 nM)” value is 99%.

Staying with this assay, now noted: inhibition rate relative to control at 100 nM test compound; TR-FRET; 60 min at room temperature; read-out: NRF2 binding inhibitory activity (at 100 nM).
`Cc1c2ccc3c1nnn3CCCCOc1ccc(c(F)c1)C(=O)N1CCc3ccc(cc3C1)C2CC(=O)O` (racemic) [Example 31, [18-Fluoro-32-methyl-20-oxo-15-oxa-8,9,10,21-tetraazahexacyclo[19.5.3.2^16,19.1^3,7.0^6,10.0^24,28]dotriaconta-1(26),3(32),4,6,8,16,18,24,27,30-decaen-2-yl]acetic acid]: the inhibition at 0.1 µM came out at 100%.
With `Cc1cc2ccc1C(=O)N1CCc3ccc(cc3C1)C(CC(=O)O)c1ccc3c(nnn3CCCOC2)c1C` (racemic) [Example 17, [18,32-Dimethyl-20-oxo-14-oxa-8,9,10,21-tetraazahexacyclo[19.5.3.2^16,19.1^3,7.0^6,10.0^24,28]dotriaconta-1(26),3(32),4,6,8,16,18,24,27,30-decaen-2-yl]acetic acid], the inhibition at 0.1 µM came out at 100%.
With `CCc1cc2ccc1C(=O)N1CCc3ccc(cc3C1)C(CC(=O)O)c1ccc3c(nnn3CCCOC2)c1C` (racemic) [Example 18, [18-Ethyl-32-methyl-20-oxo-14-oxa-8,9,10,21-tetraazahexacyclo[19.5.3.2^16,19.1^3,7.0^6,10.0^24,28]dotriaconta-1(26),3(32),4,6,8,16,18,24,27,30-decaen-2-yl]acetic acid], the inhibition at 0.1 µM worked out at 100%.
Consider `Cc1c2ccc3c1nnn3CCCOCc1ccc(c(OC(F)(F)F)c1)C(=O)N1CCc3ccc(cc3C1)C2CC(=O)O` (racemic) [Example 20, [32-Methyl-20-oxo-18-(trifluoromethoxy)-14-oxa-8,9,10,21-tetraazahexacyclo[19.5.3.2^16,19.1^3,7.0^6,10.0^24,28]dotriaconta-1(26),3(32),4,6,8,16,18,24,27,30-decaen-2-yl] acetic acid], for which the inhibition at 0.1 µM is 100%.
Turning to `Cc1c2ccc3c1nnn3CCCCCc1cc(Cl)c(c(Cl)c1)C(=O)N1CCc3ccc(cc3C1)C2CC(=O)O` (racemic) [Example 64, [2-[18,30-dichloro-32-methyl-20-oxo-8,9,10,21-tetrazahexacyclo[19.5.3.2^16,19.1^3,7.0^6,10.0^24,28]dotriaconta-1(27),3(32),4,6,8,16(31),17,19(30),24(28),25-decaen-2-yl]acetyl]oxysodium], the inhibition at 0.1 µM came to 100%.
`Cc1c2ccc3c1nnn3CCCCCc1cc(Cl)c(c(Cl)c1)C(=O)N1CCc3ccc(cc3C1)C2C(C)(C)C(=O)O` (racemic) [Example 57, 2-[18,30-dichloro-32-methyl-20-oxo-8,9,10,21-tetrazahexacyclo[19.5.3.2^16,19.1^3,7.0^6,10.0^24,28]dotriaconta-1(26),3(32),4,6,8,16,18,24,27,30-decaen-2-yl]-2-methylpropanoic acid]: the inhibition at 0.1 µM was determined as 100%.
Same read-out and setting: with `Cc1c2ccc3c1nnn3CCCCOc1ccc(c3c1OC(C)(C)C3)C(=O)N1CCc3ccc(cc3C1)C2CC(=O)O` (racemic) [Example 33, [6,6,33-Trimethyl-2-oxo-7,10-dioxa-1,15,16,17-tetraazaheptacyclo[22.5.3.2^3.9.1^18,22.0^4,8.0^15,19.0^27,31]pentatriaconta-3,8,16,18(33),19,21,24,26,31,34-decaen-23-yl]acetic acid] the figure was 100%; with `COc1cc2ccc1C(=O)N1CCc3ccc(cc3C1)C(CC(=O)O)c1ccc3c(nnn3CCCOC2)c1C` (racemic) [Example 22, [18-Methoxy-32-methyl-20-oxo-14-oxa-8,9,10,21-tetraazahexacyclo[19.5.3.2^16,19.1^3,7.0^6,10.0^24,28]dotriaconta-1(26),3(32),4,6,8,16,18,24,27,30-decaen-2-yl]acetic acid], 100%; with `Cc1c2ccc3c1nnn3CCCOCc1ccc(c(C(F)(F)F)c1)C(=O)N1CCc3ccc(cc3C1)C2CC(=O)O` (racemic) [Example 23, [32-Methyl-20-oxo-18-(trifluoromethyl)-14-oxa-8,9,10,21-tetraazahexacyclo[19.5.3.2^16-19.1^3,7.0^6,10.0^24,28]dotriaconta-1(26),3(32),4,6,8,16,18,24,27,30-decaen-2-yl]acetic acid], 100%.
For `Cc1c2ccc3c1nnn3CCCCCc1ccc(cc1)C(=O)N1CCc3ccc(cc3C1)C2CC(=O)O` (racemic) [Example 1, [32-Methyl-20-oxo-8,9,10,21-tetraazahexacyclo[19.5.3.2^16,19.1^3,7.0^6,10.0^24,28]dotriaconta-1(26),3(32),4,6,8,16,18,24,27,30-decaen-2-yl]acetic acid], the inhibition at 0.1 µM amounted to 100%.
Regarding `Cc1c2ccc3c1nnn3CCCOCc1ccc(c(Cl)c1)C(=O)N1CCc3ccc(cc3C1)C2CC(=O)O` (racemic) [Example 24, [18-Chloro-32-methyl-20-oxo-14-oxa-8,9,10,21-tetraazahexacyclo[19.5.3.2^16,19.1^3,7.0^6,10.0^24,28]dotriaconta-1(26),3(32),4,6,8,16,18,24,27,30-decaen-2-yl]acetic acid], the inhibition at 0.1 µM is 100%.
As for `Cc1c2ccc3c1nnn3CCCOCc1ccc(cc1)C(=O)N1CCc3ccc(cc3C1)C2C(C)(C)C(=O)O` (racemic) [Example 28, 2-Methyl-2-[32-methyl-20-oxo-14-oxa-8,9,10,21-tetraazahexacyclo[19.5.3.2^16,19.1^3,7.0^6,10.0^24,28]dotriaconta-(26),3(32),4,6,8,16,18,24,27,30-decaen-2-yl]propanoic acid], the inhibition at 0.1 µM worked out at 100%.
Consider `Cc1c2ccc3c1nnn3CCCOCc1ccc(c(C3CC3)c1)C(=O)N1CCc3ccc(cc3C1)C2CC(=O)O` (racemic) [Example 19, [18-Cyclopropyl-32-methyl-20-oxo-14-oxa-8,9,10,21-tetraazahexacyclo[19.5.3.2^16,19.1^3,8.0^6,10.0^24,28]dotriaconta-1(26),3(32),4,6,8,16,18,24,27,30-decaen-2-yl]acetic acid], for which the inhibition at 0.1 µM turned out to be 100%.
Turning to `Cc1c2ccc3c1nnn3CCCOCc1ccc(cc1)C(=O)N1CCc3ccc(cc3C1)C2CC(=O)OC(C)OC(=O)OC1CCCCC1` (centres unmarked) [Example 40, 1-{[(Cyclohexyloxy)carbonyl]oxy}ethyl[32-methyl-20-oxo-14-oxa-8,9,10,21-tetraazahexacyclo[19.5.3.2^16,19.1^3,7.0^6,10.0^24,28]dotriaconta-1(26),3(32),4,6,8,16,18,24,27,30-decaen-2-yl]acetate], the inhibition at 0.1 µM is 82%.
Consider `Cc1c2ccc3c1nnn3CCCCCc1ccc(cc1)C(=O)N1CCc3ccc(cc3C1)C2C(C)C(=O)O` (centres unmarked) [Example 6, 2-[32-Methyl-20-oxo-8,9,10,21-tetraazahexacyclo[19.5.3.2^16,19.1^3,7.0^6,10.0^24,28]dotriaconta-1(26),3(32),4,6,8,16,18,24,27,30-decaen-2-yl]propanoic acid], for which the inhibition at 0.1 µM amounted to 100%.
Turning to `Cc1oc(=O)oc1COC(=O)CC1c2ccc3c(c2)CN(CC3)C(=O)c2ccc(cc2)COCCCn2nnc3c(C)c1ccc32` (centres unmarked) [Example 34, (5-Methyl-2-oxo-2H-1,3-dioxol-4-yl)methyl [32-methyl-20-oxo-14-oxa-8,9,10,21-tetraazahexacyclo[19.5.3.2^16,19.1^3,7.0^6,10.0^24,28]dotriaconta-1(26),3(32),4,6,8,16,18,24,27,30-decaen-2-yl]acetate], the inhibition at 0.1 µM is 99%.
In the case of `CCOC(=O)CC1c2ccc3c(c2)CN(CC3)C(=O)c2ccc(cc2)COCCCn2nnc3c(C)c1ccc32` (centres unmarked) [Example 36, Ethyl [32-methyl-20-oxo-14-oxa-8,9,10,21-tetraazahexacyclo[19.5.3.2^16,19.1^3,7.0^6,10.0^24,28]dotriaconta-1(26),3(32),4,6,8,16,18,24,27,30-decaen-2-yl]acetate], the inhibition at 0.1 µM amounted to 15%.
In the case of `CCOC(=O)CC1c2ccc3c(c2)CN(CC3)C(=O)c2ccc(cc2)COCCCn2nnc3c(C)c1ccc32` (racemic) [Example 27, Ethyl [32-methyl-20-oxo-14-oxa-8,9,10,21-tetraazahexacyclo[19.5.3.2^16,19.1^3,7.0^6,10.0^24,28]dotriaconta-1(26),3(32),4,6,8,16,18,24,27,30-decaen-2-yl]acetate], the inhibition at 0.1 µM came to 6%.

Still in this assay, the particulars now being: read-out: NRF2 binding inhibitory activity (at 100 nM).
On to `Cc1c2ccc3c1nnn3CCCOCc1ccc(cc1)C(=O)N1CCc3ccc(cc3C1)C2CC(=O)O` (centres unmarked) [Example 41, Sodium [32-methyl-20-oxo-14-oxa-8,9,10,21-tetraazahexacyclo[19.5.3.2^16,19.1^3.7.0^6,10.0^24,28]dotriaconta-1(26),3(32),4,6,8,16,18,24,27,30-decaen-2-yl]acetate], for which the inhibition at 0.1 µM was found to be 100%.

These data come from patent US11518763B2 (SCOHIA PHARMA, INC., priority 2018, dated 2022).
